From ChEMBL document CHEMBL5724914, “Linking interpersonal differences in gut microbiota composition and drug biotransformation activity” (2024)

How the values were obtained:
[1] = The drug is tested on WLS-069 corresponding to human gut metagenome with ENA study accession number: PRJEB37062 and ENA sample accession number: ERS12561748 for biotransformation under anaerobic condition. The drug concentrations were measured over 9 timepoints collected between 0 and 24 hours of incubation by liquid-chromatography-coupled mass spectrometry (LC–MS); conditions: 2 µM
[2] = The drug is tested on WLS-039 corresponding to human gut metagenome with ENA study accession number: PRJEB37062 and ENA sample accession number: ERS12561746 for biotransformation under anaerobic condition. The drug concentrations were measured over 9 timepoints collected between 0 and 24 hours of incubation by liquid-chromatography-coupled mass spectrometry (LC–MS); conditions: 2 µM
[3] = human gut metagenome, 24 h, 2 µM
[4] = human gut metagenome, 24 h, 2 µM; remark: listed apart in the source
[5] = human gut metagenome, 24 h, 2 µM; remark: listed apart in the source
[6] = human gut metagenome, 24 h, 2 µM; remark: listed apart in the source
[7] = human gut metagenome, 24 h, 2 µM; remark: listed apart in the source
[8] = human gut metagenome, 24 h, 2 µM; remark: listed apart in the source
[9] = human gut metagenome, 24 h, 2 µM; remark: listed apart in the source
Further: call rule not given here.

Row | Structure (SMILES) | Bacterial Biotransformation [1] | Bacterial Biotransformation [2] | Bacterial Biotransformation [3] | Bacterial Biotransformation [4] | Bacterial Biotransformation [5] | Bacterial Biotransformation [6] | Bacterial Biotransformation [7] | Bacterial Biotransformation [8] | Bacterial Biotransformation [9]
1 | O=C([O-])C[C@H](O)C[C@H](O)/C=C/c1c(C2CC2)nc2ccccc2c1-c1ccc(F)cc1.O=C([O-])C[C@H](O)C[C@H](O)/C=C/c1c(C2CC2)nc2ccccc2c1-c1ccc(F)cc1.[Ca+2] [PITAVASTATIN CALCIUM] | Compound metabolized | Compound metabolized | Compound NOT metabolized | Compound NOT metabolized | Compound NOT metabolized | Compound metabolized | Compound metabolized | Compound metabolized | Compound metabolized
2 | COc1ccc2cc([C@H](C)C(=O)O)ccc2c1 [NAPROXEN] | Compound metabolized | Compound metabolized | Compound NOT metabolized | Compound NOT metabolized | Compound NOT metabolized | Compound metabolized | Compound NOT metabolized | Compound metabolized | Compound metabolized
3 | CCCCC(=O)O[C@]1(C(=O)CO)[C@@H](C)C[C@H]2[C@@H]3CCC4=CC(=O)C=C[C@]4(C)[C@@]3(F)[C@@H](O)C[C@@]21C [BETAMETHASONE VALERATE] | Compound metabolized | Compound metabolized | Compound metabolized | Compound NOT metabolized | Compound NOT metabolized | Compound metabolized | Compound NOT metabolized | Compound NOT metabolized | Compound metabolized
4 | CN1CCC(OC(c2ccccc2)c2ccccc2)CC1 | Compound NOT metabolized | Compound metabolized | Compound NOT metabolized | Compound NOT metabolized | Compound NOT metabolized | Compound NOT metabolized | Compound NOT metabolized | Compound metabolized | Compound NOT metabolized
5 | CC(C)c1nc(N(C)S(C)(=O)=O)nc(-c2ccc(F)cc2)c1/C=C/[C@@H](O)C[C@@H](O)CC(=O)[O-].CC(C)c1nc(N(C)S(C)(=O)=O)nc(-c2ccc(F)cc2)c1/C=C/[C@@H](O)C[C@@H](O)CC(=O)[O-].[Ca+2] [ROSUVASTATIN CALCIUM] | Compound metabolized | Compound metabolized | Compound metabolized | Compound metabolized | Compound NOT metabolized | Compound metabolized | Compound NOT metabolized | Compound metabolized | Compound metabolized
6 | COc1ccc(CN2CCNCC2)c(OC)c1OC.Cl.Cl [TRIMETAZIDINE DIHYDROCHLORIDE] | Compound NOT metabolized | Compound NOT metabolized | Compound NOT metabolized | Compound NOT metabolized | Compound NOT metabolized | Compound NOT metabolized | Compound NOT metabolized | Compound NOT metabolized | Compound NOT metabolized
7 | O=C1N=C([O-])NC1(c1ccccc1)c1ccccc1.[Na+] [PHENYTOIN SODIUM] | Compound metabolized | Compound NOT metabolized | Compound metabolized | Compound metabolized | Compound NOT metabolized | Compound metabolized | Compound NOT metabolized | Compound metabolized | Compound metabolized
8 | CC1=C(CC(=O)O)c2cc(F)ccc2/C1=C\c1ccc([S+](C)[O-])cc1 (stereo not given) | Compound metabolized | Compound metabolized | Compound metabolized | Compound metabolized | Compound metabolized | Compound metabolized | Compound metabolized | Compound metabolized | Compound metabolized
9 | CN(C)CCc1c[nH]c2ccc(CS(=O)(=O)N3CCCC3)cc12 [ALMOTRIPTAN] | Compound NOT metabolized | Compound NOT metabolized | Compound NOT metabolized | Compound NOT metabolized | Compound NOT metabolized | Compound NOT metabolized | Compound NOT metabolized | Compound NOT metabolized | Compound metabolized
10 | CN1CCN(C2=Nc3ccccc3Oc3ccc(Cl)cc32)CC1.O=C(O)CCC(=O)O [LOXAPINE SUCCINATE] | Compound NOT metabolized | Compound NOT metabolized | Compound NOT metabolized | Compound NOT metabolized | Compound NOT metabolized | Compound NOT metabolized | Compound NOT metabolized | Compound NOT metabolized | Compound NOT metabolized
11 | CN(C)CCC=C1c2ccccc2COc2ccccc21 [DOXEPIN] | Compound metabolized | Compound metabolized | Compound metabolized | Compound NOT metabolized | Compound NOT metabolized | Compound metabolized | Compound NOT metabolized | Compound metabolized | Compound metabolized
12 | Nc1nc(N)nc(-c2cc(Cl)ccc2Cl)n1.O=C(O)/C=C\C(=O)O [IRSOGLADINE MALEATE] | Compound NOT metabolized | Compound NOT metabolized | Compound NOT metabolized | Compound NOT metabolized | Compound NOT metabolized | Compound NOT metabolized | Compound NOT metabolized | Compound NOT metabolized | Compound metabolized
13 | C[C@]12CCC(=O)C=C1[C@@H]1C[C@@H]1[C@H]1[C@@H]3[C@@H]4C[C@@H]4[C@@]4(CCC(=O)O4)[C@@]3(C)CC[C@@H]12 [DROSPIRENONE] | Compound metabolized | Compound metabolized | Compound metabolized | Compound metabolized | Compound NOT metabolized | Compound metabolized | Compound metabolized | Compound metabolized | Compound metabolized
14 | O=C(O)c1cc(/N=N/c2ccc(S(=O)(=O)Nc3ccccn3)cc2)ccc1O [SULFASALAZINE] | Compound metabolized | Compound metabolized | Compound metabolized | Compound metabolized | Compound metabolized | Compound metabolized | Compound metabolized | Compound metabolized | Compound metabolized
15 | CC(C)NCC(O)COc1ccc(CC(N)=O)cc1 (stereo not given) [ATENOLOL] | Compound metabolized | Compound NOT metabolized | Compound NOT metabolized | Compound NOT metabolized | Compound NOT metabolized | Compound NOT metabolized | Compound NOT metabolized | Compound NOT metabolized | Compound metabolized
